# Entries after “also recorded” stand apart in the source; their conditions may differ.
# Experiments:
# Format in all cases: physicochemical
# [1] = Salt screen: XRPD of isolated solids after drying at 40° C. and at 40° C./75% RH
# In short: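 Amorphous lyophilized osanetant (~20 mg) slurried with 1.05 mol eq. counterion in solvent, thermally cycled 5–40 °C at 0.1 °C/min overnight. Solids isolated by centrifugation and analysed by XRPD, then re-analysed after ~24 h drying at 40 °C and again after ~24 h at 40 °C/75% RH.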
# [2] = Hydration study (stirring in ethanol: water mixtures, XRPD)
# Protocol: (§1) 20 mg of osanetant p-toluenesulfonic acid Form 1 was stirred in the appropriate ethanol: water mixtures for 24 h at 25° C. Where clear solutions were observed after 1 h at 25° C., 0.5 mL of liquor was removed, and additional solid was added until a slurry was maintained. After 24 h total, the experiments were isolated by centrifugation, and the solids were analyzed by XRPD.
# as §1, with “Osanetant benzenesulfonic acid” for “20 mg of osanetant p-toluenesulfonic acid”, “Form 3 (20 mg)” for “Form 1”, “was removed from the Aw 0.257 sample,” for “was removed,”
# [3] = Comparative studies: 7-day stability
# [4] = Hygroscopicity / dynamic vapor sorption (DVS)
# Protocol: The osanetant p-toluenesulfonic acid Form 1 solids consisted of aggregated crystals with an undefined morphology. Select peaks which can be used to characterize osanetant p-toluenesulfonic acid Form 1 include one or more of 11.4°2θ±0.2°2θ, 18.0°2θ±0.2°2θ, 19.0°2θ±0.2°2θ, 19.3°2θ±0.2°2θ, 19.8°2θ±0.2°2θ, or 21.1°2θ±0.2°2θ. In some embodiments, osanetant p-toluenesulfonic acid Form 1 is a monohydrate.
# [5] = Long term stability: thermal stability of solids at 60° C.; conditions: solids, darkened oven at 60° C., up to 14 days
# Protocol: (§2) Osanetant p-toluenesulfonic acid Form 1 and osanetant benzenesulfonic acid Form 1 were tested for long-term stability across a number of different conditions, as detailed below.
# Thermal stability of solids at 60° C.—Osanetant p-toluenesulfonic acid Form 1 and osanetant benzenesulfonic acid Form 1 were stored in a darkened oven at 60° C. in glass vials. Samples were taken after T=1, 2, 4, 7, and 14 days storage. […] The purity of the resulting material is described in Table 41: […]
# [6] = Long term stability: acid stability (2M HCl) at ambient temperature; conditions: 2M HCl, dark, ambient, up to 14 days
# Protocol: as §2
# (§3) Acid Stability at Ambient Temperature-Osanetant p-toluenesulfonic acid Form 1 and osanetant benzenesulfonic acid Form 1 were prepared at an osanetant content 10 times the normal working concentration then added to HPLC vials containing 2M HCl and stored in the dark at ambient laboratory conditions. Samples were diluted to 2 mg/mL for analysis and were taken after T=1, 2, 4, 7, and 14 days storage. […] The purity of the resulting material is described in Table 42: […]
# [7] = Long term stability: base (2M NaOH) at ambient temperature; conditions: 2M NaOH, dark, ambient, up to 14 days
# Protocol: as §2
# as §3, with “Base” for “Acid Stability”, “Temperature—Osanetant” for “Temperature-Osanetant”, “NaOH” for “HCl”, “44:” for “42:”
# [8] = Long term stability: oxidation (6% H2O2) at ambient temperature; conditions: 6% H2O2, dark, ambient, up to 14 days
# Protocol: as §2
# as §3, with “Oxidation” for “Acid Stability”, “6% H2O2” for “2M HCl”, “46:” for “42:”
# [9] = Solid form stability observations (scale up / polymorph work: drying, ambient conditions, aqueous media)
# In short: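 Osanetant sulfonic acid salt forms were crystallized by thermal cycling between 40 and 5 °C at 0.1 °C/min, held 18 h at 5 °C, filtered, washed with solvent and dried at 40 °C under vacuum for 72 h. Stability was judged by change on drying, on standing at ambient conditions after KF/oven drying, and in water or aqueous solvent mixtures.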
smiles,measurement,setting,value
"CC(=O)N(C)C1(c2ccccc2)CCN(CCC[C@]2(c3ccc(Cl)c(Cl)c3)CCCN(C(=O)c3ccccc3)C2)CC1.Cc1ccc(S(=O)(=O)O)cc1 [osanetant p-toluenesulfonic acid Form 1, (R)-N-(1-(3-(1-benzoyl-3-(3,4-dichlorophenyl)piperidin-3-yl)propyl)-4-phenylpiperidin-4-yl)-N-methylacetamide p-toluenesulfonic acid]",XRPD after drying at 40° C./75% RH,"[1]; after 40° C. drying, dried at 40° C./75% RH for about 24 h, label = form after 40° C. drying",retained; also recorded: stable; also recorded: Form 1
same,XRPD after drying at 40° C.,"[1]; isolated solids dried at 40° C. for about 24 h, label = wet form",retained; also recorded: Form 1
same,XRPD form after stirring in ethanol: water mixtures,"[2]; 24 h at 25° C., all mixtures tested",no change in form
same,XRPD,"[2]; slurry in ethanol:water 63.6:36.4 % v/v, calc Aw 0.745, 24 h at 25° C.",Form 1
same,XRPD,"[2]; slurry in ethanol:water 92.9:7.1 % v/v, calc Aw 0.507, 24 h at 25° C.",Form 1
same,XRPD,"[2]; slurry in ethanol:water 98.4:1.6 % v/v, calc Aw 0.257, 24 h at 25° C.",Form 1
same,impurities on 7-day stability,[3]; 80° C.,increase in impurities
same,solid form on 7-day stability,"[3]; 7 days, elevated temperature where stated",form was retained
same,physical stability,"[3]; in slurry at various water activity and pH, and at 40° C./75% RH and 80° C.",physically stable
same,hygroscopicity / water loss on DVS analysis,[4],did not lose the water
same,weight gain (hygroscopicity),[4]; at 80% RH,0.2 wt. %
same,degradation on storage (purity),[5],lack of degradation
same,degradation on storage (purity),[6],lack of degradation
same,degradation on storage (purity),[7],lack of degradation
same,degradation on storage (purity),[8],lack of degradation
same,form stability / re-hydration under ambient conditions,[9]; ambient conditions / room temperature and pressure,re-hydrated
same,dehydration temperature,[9]; dehydrates to Form 5,above 85 °C
same,form on drying,[9]; drying (40° C. under vacuum where stated),stable; also recorded: no change
